# Experimental data published in patent US20250171431A1, “HETEROCYCLIC INHIBITORS OF IGF-1R FOR TREATMENT OF DISEASE” (HORIZON THERAPEUTICS IRELAND DAC, priority 2023, published 2025).
# Biological target: IGF-1R (Homo sapiens (Human), UniProt P08069)
# Experiment: Example B-1: IGF-1R Assay (PC3 cells, IGF1 stimulation, AlphaLISA)
# Type: cell-based
# Conditions: 200 ng/mL IGF1 stimulation, read-out: Biological Activity against IGF-1R IC50
# In short: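 PC3 cells were serum-starved 2 h, treated with serially diluted compounds for 2 h, then stimulated with IGF1 (200 ng/mL final) for 30 min. Lysates were read by AlphaLISA; % inhibition was calculated relative to vehicle and EC80 controls, with IC50 values binned into ranges.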
# Chain of IGF-1R (P08069 31-1367): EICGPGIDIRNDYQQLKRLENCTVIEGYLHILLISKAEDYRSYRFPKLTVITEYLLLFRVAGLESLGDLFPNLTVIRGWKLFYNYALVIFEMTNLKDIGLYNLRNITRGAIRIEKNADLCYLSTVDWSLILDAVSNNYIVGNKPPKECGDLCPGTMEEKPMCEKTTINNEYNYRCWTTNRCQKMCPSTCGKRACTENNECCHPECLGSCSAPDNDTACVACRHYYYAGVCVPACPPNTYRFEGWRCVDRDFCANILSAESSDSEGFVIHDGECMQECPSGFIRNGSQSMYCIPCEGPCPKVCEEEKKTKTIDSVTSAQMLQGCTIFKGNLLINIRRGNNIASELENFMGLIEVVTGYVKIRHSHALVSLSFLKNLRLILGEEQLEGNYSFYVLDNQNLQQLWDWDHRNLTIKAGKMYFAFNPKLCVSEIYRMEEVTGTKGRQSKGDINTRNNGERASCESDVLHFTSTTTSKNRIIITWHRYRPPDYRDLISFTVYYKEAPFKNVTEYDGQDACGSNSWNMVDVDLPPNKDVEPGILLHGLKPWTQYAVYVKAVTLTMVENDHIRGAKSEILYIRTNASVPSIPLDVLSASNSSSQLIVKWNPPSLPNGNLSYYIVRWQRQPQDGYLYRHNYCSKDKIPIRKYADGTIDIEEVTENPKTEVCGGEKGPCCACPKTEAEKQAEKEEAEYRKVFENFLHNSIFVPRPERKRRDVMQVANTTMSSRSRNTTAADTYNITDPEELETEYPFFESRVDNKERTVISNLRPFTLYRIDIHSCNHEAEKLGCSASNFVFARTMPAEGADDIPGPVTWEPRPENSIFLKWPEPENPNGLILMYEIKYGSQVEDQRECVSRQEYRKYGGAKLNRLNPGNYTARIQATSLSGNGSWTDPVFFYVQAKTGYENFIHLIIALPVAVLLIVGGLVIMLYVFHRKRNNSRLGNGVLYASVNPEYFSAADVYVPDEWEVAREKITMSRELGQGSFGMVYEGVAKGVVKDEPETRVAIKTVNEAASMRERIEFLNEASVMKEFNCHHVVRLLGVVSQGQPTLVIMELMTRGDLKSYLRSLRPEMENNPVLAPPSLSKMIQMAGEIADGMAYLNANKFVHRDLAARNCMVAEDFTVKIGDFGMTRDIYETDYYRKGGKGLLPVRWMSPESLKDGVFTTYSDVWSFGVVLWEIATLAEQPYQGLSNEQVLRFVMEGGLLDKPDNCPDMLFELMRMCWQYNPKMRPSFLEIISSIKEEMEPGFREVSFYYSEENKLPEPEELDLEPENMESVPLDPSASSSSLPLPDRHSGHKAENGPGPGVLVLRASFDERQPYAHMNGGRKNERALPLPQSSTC
row,SMILES,IC50 [nM]
1,"COc1cc(Nc2nccc(Nc3cnc4c(c3)OCCO4)n2)ccc1O[C@H]1C[C@H](N2CCOCC2)C1 [Compound 23, 4-(2,3-dihydro-1,4-dioxa-5-aza-7-naphthylamino)-2-{3-methoxy-4-[(1r,3r)-3-morpholinocyclobutoxy]phenylamino}pyrimidine]",≤ 500
2,"COc1cc(Nc2nccc(Nc3cnc4cc(F)c(F)cc4c3)n2)cnc1N1CCN(C)CC1 [Compound 468, 4-(6,7-difluoro-3-quinolylamino)-2-[5-methoxy-6-(4-methyl-1-piperazinyl)-3-pyridylamino]pyrimidine]",≤ 500
3,"COc1cc(Nc2nccc(Nc3ncc4ccc(Br)cc4n3)n2)ccc1O[C@H]1C[C@@H](N(C)C)C1 [Compound 307, 4-(7-bromo-2-quinazolinylamino)-2-{3-methoxy-4-[(1s,3s)-3-(dimethylamino)cyclobutoxy]phenylamino}pyrimidine]",2000 to 10000
4,"COc1ccc2cc(Nc3ccnc(Nc4ccc(OCCCN5CCCCC5)c(OC)c4)n3)ccc2c1 [Compound 444, 4-(6-methoxy-2-naphthylamino)-2-[3-methoxy-4-(3-piperidinopropoxy)phenylamino] pyrimidine]",≤ 500
5,"COc1cc(Nc2nccc(Nc3cnc4cc(F)c(F)cc4c3)n2)cnc1O[C@@H]1C[C@H](N(C)C)C1(C)C [Compound 254, 2-{6-[(1R,3S)-3-(dimethylamino)-2,2-dimethylcyclobutoxy]-5-methoxy-3-pyridylamino}-4-(6,7-difluoro-3-quinolylamino)pyrimidine]",≤ 500
6,"CN(C)CC(=O)N1CCc2cc(Nc3nccc(Nc4cc5cccc(F)c5[nH]c4=O)n3)ccc21 [Compound 151, 3-((2-((1-(dimethylglycyl)indolin-5-yl)amino)pyrimidin-4-yl)amino)-8-fluoroquinolin-2(1H)-one]",≤ 500
7,"COc1cc(Nc2nccc(Nc3cnc4c(c3)OC(CN(C)C)CO4)n2)ccc1O[C@H]1C[C@@H](N(C)C)C1 (stereo partly drawn) [Compound 259, 4-{2-[(dimethylamino)methyl]-2,3-dihydro-1,4-dioxa-5-aza-7-naphthylamino}-2-{3-methoxy-4-[(1s,3s)-3-(dimethylamino)cyclobutoxy]phenylamino}pyrimidine]",≤ 500
8,"COc1cc(Nc2nccc(Nc3cnc4c(c3)CC3(CC4)OCCO3)n2)ccc1OCCCN1CCCCC1 [Compound 303, 4-(7′,8′-dihydro-5′H-spiro[1,3-dioxolane-2,6′-quinolin]-3′-ylamino)-2-[3-methoxy-4-(3-piperidinopropoxy)phenylamino] pyrimidine]",≤ 500
9,"COc1cc(Nc2nccc(Nc3cnc4c(c3)C3CCC4CC3)n2)ccc1O[C@H]1C[C@H](N(C)C)C1 [Compound 75, 4-{3-azatricyclo[6.2.2.02,7]dodeca-2(7),3,5-trien-5-ylamino}-2-{3-methoxy-4-[(1r,3r)-3-(dimethylamino)cyclobutoxy]phenylamino}pyrimidine]",≤ 500
10,"CN(C)CC1COc2cc(Nc3nccc(Nc4cc5cc(Cl)ccc5[nH]c4=O)n3)ccc2O1 (stereo not drawn) [Compound 245, 6-chloro-3-(2-{2-[(dimethylamino)methyl]-2,3-dihydro-1,4-benzodioxin-6-ylamino}-4-pyrimidinylamino)-1,2-dihydro-2-quinolinone]",≤ 500
11,"COc1cc(Nc2nccc(Nc3cnc4c(F)cc(F)cc4c3)n2)cnc1O[C@H]1C[C@@H](N(C)C)C1 [Compound 290, 4-(6,8-difluoro-3-quinolylamino)-2-{5-methoxy-6-[(1s,3s)-3-(dimethylamino)cyclobutoxy]-3-pyridylamino}pyrimidine]",≤ 500
12,"COc1cc(Nc2nccc(Nc3cnc4ccc(C(F)(F)F)cc4c3)n2)ccc1OCCCN1CCOCC1 [Compound 419, 2-[3-methoxy-4-(3-morpholinopropoxy)phenylamino]-4-[6-(trifluoromethyl)-3-quinolylamino]pyrimidine]",≤ 500
13,"COc1cc(Nc2nccc(Nc3cnc4ccc(Cl)cc4c3)n2)ccc1O[C@H]1CC[C@@H](N(C)C)CC1 [Compound 286, 4-(6-chloro-3-quinolylamino)-2-{3-methoxy-4-[(1s,4s)-4-(dimethylamino)cyclohexyloxy]phenylamino}pyrimidine]",≤ 500
14,"FC(F)(F)c1cccc2cc(Nc3ccnc(Nc4ccc(OCCCN5CCOCC5)cc4)n3)cnc12 [Compound 415, 2-[p-(3-morpholinopropoxy)phenylamino]-4-[8-(trifluoromethyl)-3-quinolylamino]pyrimidine]",2000 to 10000
15,"COc1cc(Nc2nccc(Nc3cnc4cc(Cl)cnc4c3)n2)cnc1O[C@H]1C[C@@H](N(C)C)C1 [Compound 279, 4-(7-chloro-1,5-diaza-3-naphthylamino)-2-{5-methoxy-6-[(1s,3s)-3-(dimethylamino)cyclobutoxy]-3-pyridylamino}pyrimidine]",500 to 2000
16,"Oc1ccc2ncc(Nc3ccnc(Nc4ccc(OCCCN5CCOCC5)cc4)n3)cc2c1 [Compound 414, 3-{2-[p-(3-morpholinopropoxy)phenylamino]-4-pyrimidinylamino}-6-quinolinol]",≤ 500
17,"COc1cc(Nc2nccc(Nc3cnc4ccc(Cl)cc4c3)n2)cnc1N1CCN(CC#N)CC1 [Compound 479, (4-{5-[4-(6-chloro-3-quinolylamino)-2-pyrimidinylamino]-3-methoxy-2-pyridyl}-1-piperazinyl)acetonitrile]",≤ 500
18,"COc1nc(N2CCC(C)(O)CC2)ccc1Nc1nccc(Nc2cc3cccc(F)c3[nH]c2=O)n1 [Compound 231, 8-fluoro-3-{2-[6-(4-hydroxy-4-methyl-1-piperidyl)-2-methoxy-3-pyridylamino]-4-pyrimidinylamino}-1,2-dihydro-2-quinolinone]",≤ 500
19,"COc1cc(N2CCC(C)(O)CC2)ncc1Nc1nccc(Nc2cnc3cc(F)c(F)cc3c2)n1 [Compound 488, 1-{5-[4-(6,7-difluoro-3-quinolylamino)-2-pyrimidinylamino]-4-methoxy-2-pyridyl}-4-methyl-4-piperidinol]",≤ 500
20,"COc1cc(Nc2nccc(Nc3cnc4ccc(C#N)cc4c3)n2)ccc1O[C@H]1C[C@@H](N(C)C)C1 [Compound 313, 3-(2-{3-methoxy-4-[(1s,3s)-3-(dimethylamino)cyclobutoxy]phenylamino}-4-pyrimidinylamino)-6-quinolinecarbonitrile]",≤ 500
21,"COc1cc(Nc2nccc(Nc3cnc4c(c3)CC3(CC4)OCCO3)n2)ccc1O[C@H]1C[C@@H](N(C)C)C1 [Compound 322, 4-(7′,8′-dihydro-5′H-spiro[1,3-dioxolane-2,6′-quinolin]-3′-ylamino)-2-{3-methoxy-4-[(1s,3s)-3-(dimethylamino)cyclobutoxy]phenylamino}pyrimidine]",≤ 500
22,"COc1ccc2cc(Nc3ccnc(Nc4ccc(O[C@H]5C[C@H](N(C)C)C5)c(OC)c4)n3)cnc2c1 [Compound 337, 4-(7-methoxy-3-quinolylamino)-2-{3-methoxy-4-[(1r,3r)-3-(dimethylamino)cyclobutoxy]phenylamino}pyrimidine]",≤ 500

# Now from value to compound:
row,IC50 [nM],SMILES
1,≤ 500,"COc1cc(Nc2nccc(Nc3cnc4c(c3)OCCO4)n2)ccc1OCCCN1CCOCC1 [Compound 389, 4-(2,3-dihydro-1,4-dioxa-5-aza-7-naphthylamino)-2-[3-methoxy-4-(3-morpholinopropoxy)phenylamino]pyrimidine]"
2,500 to 2000,"COc1cc(Nc2nccc(Nc3cnc4cc(F)c(F)cc4c3)n2)cnc1N1CC2CCC(C1)O2 [Compound 126, 4-(6,7-difluoro-3-quinolylamino)-2-{5-methoxy-6-(8-oxa-3-azabicyclo[3.2.1]oct-3-y1)-3-pyridylamino}pyrimidine]"
3,≤ 500,"COc1cc(N2CCC(C)(O)CC2)ncc1Nc1nccc(Nc2cnc3ccc(Cl)cc3c2)n1 [Compound 490, 1-{5-[4-(6-chloro-3-quinolylamino)-2-pyrimidinylamino]-4-methoxy-2-pyridyl}-4-methyl-4-piperidinol]"
4,≤ 500,COc1cc(Nc2nccc(Nc3cnc4c(c3)C3CCC4CC3)n2)ccc1OCCCN1CCCCC1 [Compound 209]
5,≤ 500,"COc1cc(Nc2nccc(Nc3cnc4cc(F)c(F)cc4c3)n2)cnc1N1CCN(C)C(C)(C)C1 [Compound 484, 4-(6,7-difluoro-3-quinolylamino)-2-[6-(3,3-dimethyl-4-methyl-1-piperazinyl)-5-methoxy-3-pyridylamino]pyrimidine]"
6,≤ 500,"COc1cc(Nc2nccc(Nc3cnc4cc(F)c(F)cc4c3)n2)cnc1N1CCNC(C(F)(F)F)C1 (stereo not drawn) [Compound 176, N4-(6,7-difluoroquinolin-3-yl)-N2-(5-methoxy-6-(3-(trifluoromethyl)piperazin-1-yl)pyridin-3-yl)pyrimidine-2,4-diamine]"
7,≤ 500,"COc1cc(Nc2nccc(Nc3cnc4c(c3)OC(C)CO4)n2)ccc1OCCCN1CCCCC1 (stereo not drawn) [Compound 387, 2-[3-methoxy-4-(3-piperidinopropoxy)phenylamino]-4-(2-methyl-2,3-dihydro-1,4-dioxa-5-aza-7-naphthylamino)pyrimidine]"
8,≤ 500,"Clc1cc(Nc2nccc(Nc3cnc4ccccc4c3)n2)ccc1N1CCOCC1 [Compound 459, 2-(3-chloro-4-morpholinophenylamino)-4-(3-quinolylamino)pyrimidine]"
9,≤ 500,"COc1cc(Nc2nccc(Nc3cnc4ccc(Cl)cc4c3)n2)cnc1N1CCC(C)(O)CC1 [Compound 476, 1-{5-[4-(6-chloro-3-quinolylamino)-2-pyrimidinylamino]-3-methoxy-2-pyridyl}-4-methyl-4-piperidinol]"
10,2000 to 10000,"FC(F)(F)Oc1cccc2cc(Nc3ccnc(Nc4ccc(OCCCN5CCOCC5)cc4)n3)cnc12 [Compound 404, 2-[p-(3-morpholinopropoxy)phenylamino]-4-(8-trifluoromethoxy-3-quinolylamino)pyrimidine]"
11,≤ 500,"COc1nc(N2CCC(C)(O)CC2)ccc1Nc1nccc(Nc2cnc3ccc(Cl)cc3c2)n1 [Compound 489, 1-{5-[4-(6-chloro-3-quinolylamino)-2-pyrimidinylamino]-6-methoxy-2-pyridyl}-4-methyl-4-piperidinol]"
